Active and inactive are the calls of the source. No cut-off for these calls is given here.
What was measured:
[1] = system: SK-BR-3; assay: Cytotoxicity in human SK-BR-3 cells assessed as reduction in cell viability at 50 to 500 nM incubated for 72 hrs in absence of 15 mins photoirradiation at 365 nm by WST assay; format: toxicity, cell-based; conditions: sk-br-3, 72 h, 0.5 µM, dose 50-500 nM
[2] = system: SK-BR-3; assay: Cytotoxicity in human SK-BR-3 cells assessed as reduction in cell viability at 50 to 500 nM incubated for 72 hrs in presence of 15 mins photoirradiation at 365 nm by WST assay; format: functional, cell-based; conditions: dose 50-500 nM

`CC[C@@]1(OC(=O)CCCCNC(=O)OC(C)c2cc(OC)c(OCCCC(=O)NCCN3C(=O)CC(NCCNC(=O)CCCC[C@@H]4SC[C@H]5NC(=O)N[C@@H]45)C3=O)cc2[N+](=O)[O-])C(=O)OCc2c1cc1n(c2=O)Cc2cc3ccccc3nc2-1` (some centres not stated) was tested, and the Activity [1] was “Non-Toxic” and the Activity [2] was “Active”.
